Structures are written as SMILES. Values joined by “and” are separate entries in the source; they are usually repeats but may differ in a detail not shown here. Identical values can stand only once. Active and inactive are the calls of the source. How the calls were made is not given here. Bounds are passed on as bounds.

The experiment deals with M. tuberculosis H37Rv growth inhibition with meropenem. The experiment is described as follows: M. tuberculosis growth inhibition, H37Rv, set 2, dose response (AID 504703).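 Further: growth ran 7 days at 37 °C then overnight with Alamar Blue before reading.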
Setting [1] is: M. tuberculosis H37Rv growth inhibition, measured here: IC50 without meropenem.
The mark [2] stands for this setting: M. tuberculosis H37Rv growth inhibition, measured here: IC90 without meropenem.
Where [3] appears, read: measured here: IC90 with meropenem.

As usually defined, the IC50 is the concentration that inhibits the measured activity by half. The IC90 is the concentration needed for an effect of 90%. Low values mean greater potency, high ones weaker potency. `CC(C)(Oc1ccc(Cl)cc1)C(=O)Nc1nc2ccccc2s1`: the IC50 under setting [1] was greater than 25 µM. The same compound displayed an IC90 under setting [2] greater than 25 µM.

With `O=C(COc1ccc2c3c(c(=O)oc2c1)CCC3)Nc1nc2ccccc2[nH]1`, the IC50 under setting [1] is greater than 25 µM. Under setting [2], this compound gave an IC90 greater than 25 µM.

As for `CCOc1ccc2nc(NC(=O)C3(c4ccccc4)CCCC3)sc2c1`, the IC50 was 1.2 µM (inactive). The IC50 under setting [1] was 2.08 µM. This compound displayed an IC90 under setting [2] of 8.95 µM. Further, the IC90 under setting [3] was 4.16 µM.

`O=C(COc1ccccc1Cl)Nc1nc2ccccc2s1` returned an IC50 under setting [1] greater than 25 µM. In addition, under setting [2], the IC90 was greater than 25 µM.

In turn, `Cc1cc2ccccc2n1-c1ccccc1` gave an IC50 under setting [1] greater than 25 µM. This compound came in with an IC90 under setting [2] greater than 25 µM.

With `Oc1ccc2[nH]ccc2c1`, under setting [1], the IC50 was greater than 25 µM. Under setting [2], this compound came in with an IC90 greater than 25 µM.

For `c1ccc(Nc2ncnc3c2oc2ccccc23)cc1`, the IC50 is > 18.8 µM (inactive) and 5.29 µM (inactive). Also, the IC50 under setting [1] is > 18.8 µM and 11.5 µM. The compound also registered a 90% effect concentration (IC90) under setting [2] greater than 18.8 µM. The compound further displayed an IC90 under setting [3] greater than 25 µM.

The compound `O=C(COC(=O)C1=COCCO1)Nc1ccc2c(c1)OCO2` gave an IC50 under setting [1] greater than 25 µM. Also, the IC90 runs as follows: under setting [2], greater than 25 µM; under setting [3], greater than 25 µM.

Compound `O=C(OC(C(=O)Nc1ccc(Cl)cc1C(F)(F)F)c1ccccc1)C1=COCCO1` (stereo unspecified) registered an IC50 under setting [1] of 16.9 µM. Further, the IC90 by setting is: under setting [2], greater than 25 µM; under setting [3], greater than 25 µM.

The compound `Cc1ccc(OCC(=O)Nc2cccc3c(NC(=O)COc4ccc(C)cc4C)cccc23)c(C)c1` had an IC50 under setting [1] greater than 25 µM. In addition, the concentration for an effect of 90% (IC90) under setting [2] was greater than 25 µM.

For the compound `CCOc1ccc(NC(=O)COc2ccc(C)cc2C)cc1`, under setting [1], the IC50 is greater than 25 µM. Under setting [2], this compound showed an IC90 greater than 25 µM.

Regarding `COc1ccc(C(=O)Nc2ccc3nc(N4CCCCC4)cc(C)c3c2)c(OC)c1`, the IC50 was 17.6 µM (inactive). The IC50 under setting [1] is greater than 25 µM. The IC90 under setting [2] is greater than 25 µM. Further, the IC90 under setting [3] was greater than 25 µM.

As to `N/C(=N\c1nc2ccccc2o1)NC(=O)COc1ccc2ccccc2c1`, the IC50 under setting [1] was greater than 25 µM. The compound further registered an IC90 under setting [2] greater than 25 µM.

The compound `N/C(=N\c1nc2ccccc2o1)NC(=O)C1CC1` had a concentration for half-maximal inhibition (IC50) under setting [1] greater than 25 µM. Moreover, the IC90 under setting [2] was greater than 25 µM.

On to `COc1cccc(-c2ccc(-c3noc(-c4ccccc4F)n3)c(OC)n2)c1`, for which the IC50 was > 25 µM (inactive). In addition, the IC50 under setting [1] was greater than 25 µM. In addition, the IC90 under setting [2] is greater than 25 µM. Moreover, the IC90 under setting [3] is greater than 25 µM.

As for `O=C(Cc1ccccc1Cl)Nc1nc2ccccc2[nH]1`, the IC50 is 18.9 µM (inactive). Also, the IC50 under setting [1] is > 18.8 µM and 16.4 µM. Moreover, under setting [2], the IC90 is greater than 25 µM. Besides, the IC90 under setting [3] was greater than 25 µM.

Consider `O=C(Nc1nc2ccccc2[nH]1)c1ccc(Cl)c(Cl)c1`, for which the IC50 was 0.81 µM (inactive). The compound also had an IC50 under setting [1] of 1.9 µM. In addition, the 90% effect concentration (IC90) under setting [2] is greater than 25 µM. Also, the IC90 under setting [3] was greater than 25 µM.

Regarding `CC(=O)c1c(C)n(-c2ccccc2)c2ccc(O)cc12`, the IC50 is 20.1 µM (inactive). The compound further gave an IC50 under setting [1] greater than 25 µM. The IC90 under setting [2] is greater than 25 µM. Under setting [3], this compound gave an IC90 greater than 25 µM.

Compound `CC(=O)Nc1ccc2nc(NC(=O)Cc3ccccc3)sc2c1` gave an IC50 under setting [1] greater than 25 µM. This compound had an IC90 under setting [2] greater than 25 µM.

In the case of `N/C(=N\c1nc2ccccc2o1)NC(=O)c1ccccc1Br`, under setting [1], the IC50 came to 8.26 µM. The IC90 is, setting by setting: under setting [2], greater than 25 µM; under setting [3], greater than 25 µM.

`O=C(COC(=O)C1CC1)c1c[nH]c2ccccc12`: under setting [1], the IC50 is 1.15 µM and 2.08 µM. Moreover, the IC90 is greater than 6.25 µM under setting [2] and greater than 25 µM under setting [3].

`COc1ccccc1C(=O)N/C(N)=N/c1nc2ccccc2o1` gave an IC50 under setting [1] greater than 25 µM. The compound further yielded an IC90 under setting [2] greater than 25 µM.

Under setting [1], `CC(=O)c1c(C)n(-c2cccc(Cl)c2)c2ccc(O)cc12` yielded an IC50 greater than 25 µM. This compound also came in with an IC90 under setting [2] greater than 25 µM.

Take `CCOc1ccc2c(c1)c(C(C)=O)c(C)n2-c1ccccc1C`: under setting [1], the IC50 amounted to 23.2 µM. The compound further registered an IC90 under setting [2] greater than 25 µM and an IC90 under setting [3] of 12.1 µM.

Compound `CCOc1ccc2c(c1)c(CC)c(C)n2-c1ccccc1` came in with an IC50 under setting [1] greater than 25 µM. Also, the IC90 is, setting by setting: under setting [2], greater than 25 µM; under setting [3], greater than 25 µM.

As for `COC(=O)c1c(C)n(-c2ccccc2)c2ccc(O)cc12`, the IC50 is 8.43 µM (inactive) and > 12.5 µM (inactive). Moreover, the IC50 under setting [1] is greater than 25 µM. The compound further gave an IC90 under setting [2] greater than 25 µM. Moreover, the IC90 under setting [3] was greater than 18.8 µM.

Turning to `Cc1ccccc1C(=O)Nc1nc2ccccc2[nH]1`, the IC50 was 8.75 µM (inactive). Also, the IC50 under setting [1] turned out to be 17.9 µM. Under setting [2], this compound registered an IC90 greater than 25 µM. Moreover, under setting [3], the IC90 was greater than 25 µM.

Consider `Cc1cc2ccccc2[nH]1`, for which the half-inhibitory concentration (IC50) under setting [1] was greater than 25 µM. Further, the IC90 under setting [2] was greater than 25 µM.

`Cc1ccc2sc(NC(=O)COc3ccccc3)nc2c1C`: under setting [1], the IC50 was found to be 23.7 µM. Besides, the IC90 under setting [2] is greater than 25 µM.

For the compound `Cc1ccccc1OCC(=O)Nc1ccccc1-c1ccccc1`, the IC50 is 14.6 µM (inactive). This compound returned an IC50 under setting [1] greater than 25 µM. This compound returned an IC90 under setting [2] greater than 25 µM. The IC90 under setting [3] is greater than 25 µM.
